Measured values published in PubChem BioAssay AID1963442 (Molecular Pharmacology Branch, DTP, NCI, 2024).

Tested on: MPNST complex spheroid with HUVEC/MSC, growth, % test/control
Experiment: Anticancer human tumor MPNST cell line growth inhibition [Asc];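 further: compounds left on spheroids for seven days before reading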
Conditions: for IC50: curve of first compound; for viability, T/C: stronger effect = lower value; active means viability on the fitted dose curve at most 10% of control; inactive means the rest
Summary of the method: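 Tumor cells were grown as complex spheroids with human endothelial cells (HUVEC) and human mesenchymal stem cells as stroma. Agents were tested alone and in combination, in half-log steps down from the clinical Cmax, or from 10 microM where Cmax was unknown.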

C=C(F)C(=O)N1CCN(c2nc(OCC3CCCN3C)nc3c2CCN(c2cccc4cccc(Cl)c24)C3)CC1CC#N (configuration not stated) + CCN1C(C(=O)NC23CCC(C(=O)O)(CC2)CC3)C(c2cccc(Cl)c2F)C2(C(=O)Nc3cc(Cl)ccc32)C12CCCCC2
3890 nM: IC50 (second compound 3 µM)
inactive: viability, T/C (second compound 0.03 µM, first compound 0.0316 µM) 56.3% | viability, T/C (second compound 0.03 µM, first compound 0.1 µM) 61.1% | viability, T/C (second compound 0.03 µM, first compound 0.316 µM) 65.2% | viability, T/C (second compound 0.03 µM, first compound 1 µM) 63.1% | viability, T/C (second compound 0.03 µM, first compound 3.16 µM) 72.9% | viability, T/C (second compound 0.03 µM, first compound 10 µM) 65.6% | viability, T/C (second compound 0.0949 µM, first compound 0.0316 µM) 87.5% | viability, T/C (second compound 0.0949 µM, first compound 0.1 µM) 59% | viability, T/C (second compound 0.0949 µM, first compound 0.316 µM) 77.5% | viability, T/C (second compound 0.0949 µM, first compound 1 µM) 75.6% | viability, T/C (second compound 0.0949 µM, first compound 3.16 µM) 67% | viability, T/C (second compound 0.0949 µM, first compound 10 µM) 66.2% | viability, T/C (second compound 0.3 µM, first compound 0.0316 µM) 92.4% | viability, T/C (second compound 0.3 µM, first compound 0.1 µM) 85.3% | viability, T/C (second compound 0.3 µM, first compound 0.316 µM) 106% | viability, T/C (second compound 0.3 µM, first compound 1 µM) 63.6% | viability, T/C (second compound 0.3 µM, first compound 3.16 µM) 82.8% | viability, T/C (second compound 0.3 µM, first compound 10 µM) 68.8% | viability, T/C (second compound 0.949 µM, first compound 0.0316 µM) 88.5% | viability, T/C (second compound 0.949 µM, first compound 0.1 µM) 80.3% | viability, T/C (second compound 0.949 µM, first compound 0.316 µM) 97.5% | viability, T/C (second compound 0.949 µM, first compound 1 µM) 62.1% | viability, T/C (second compound 0.949 µM, first compound 3.16 µM) 55.4% | viability, T/C (second compound 0.949 µM, first compound 10 µM) 57% | viability, T/C (second compound 3 µM, first compound 0.0316 µM) 84.8% | viability, T/C (second compound 3 µM, first compound 0.1 µM) 74.8% | viability, T/C (second compound 3 µM, first compound 0.316 µM) 73% | viability, T/C (second compound 3 µM, first compound 1 µM) 60.8% | viability, T/C (second compound 3 µM, first compound 3.16 µM) 50.8% | viability, T/C (second compound 3 µM, first compound 10 µM) 42.7%
> 10000 nM: IC50 (second compound 0.03 µM) | IC50 (second compound 0.0949 µM) | IC50 (second compound 0.3 µM) | IC50 (second compound 0.949 µM)

CCN1CCN(Cc2ccc(Nc3ncc(F)c(-c4cc(F)c5nc(C)n(C(C)C)c5c4)n3)nc2)CC1 + CNC(C)C(=O)NC1CN(S(=O)(=O)c2cccc(S(=O)(=O)N3CCC4CCC(C(=O)NC(c5ccccc5)c5ccccc5)N4C(=O)C(NC(=O)C(C)NC)C3)c2)CCC2CCC(C(=O)NC(c3ccccc3)c3ccccc3)N2C1=O
inactive: viability, T/C (second compound 0.00316 µM, first compound 0.00316 µM) 80.7% | viability, T/C (second compound 0.00316 µM, first compound 0.01 µM) 58.2% | viability, T/C (second compound 0.00316 µM, first compound 0.0316 µM) 58.9% | viability, T/C (second compound 0.00316 µM, first compound 0.1 µM) 56.2% | viability, T/C (second compound 0.00316 µM, first compound 0.316 µM) 51.9% | viability, T/C (second compound 0.00316 µM, first compound 1 µM) 57.2% | viability, T/C (second compound 0.01 µM, first compound 0.00316 µM) 141% | viability, T/C (second compound 0.01 µM, first compound 0.01 µM) 83.2% | viability, T/C (second compound 0.01 µM, first compound 0.0316 µM) 102% | viability, T/C (second compound 0.01 µM, first compound 0.1 µM) 71.8% | viability, T/C (second compound 0.01 µM, first compound 0.316 µM) 61.2% | viability, T/C (second compound 0.01 µM, first compound 1 µM) 73% | viability, T/C (second compound 0.0316 µM, first compound 0.00316 µM) 94.5% | viability, T/C (second compound 0.0316 µM, first compound 0.01 µM) 92.9% | viability, T/C (second compound 0.0316 µM, first compound 0.0316 µM) 106% | viability, T/C (second compound 0.0316 µM, first compound 0.1 µM) 66.5% | viability, T/C (second compound 0.0316 µM, first compound 0.316 µM) 72.5% | viability, T/C (second compound 0.0316 µM, first compound 1 µM) 87.1% | viability, T/C (second compound 0.1 µM, first compound 0.00316 µM) 79.7% | viability, T/C (second compound 0.1 µM, first compound 0.01 µM) 74.2% | viability, T/C (second compound 0.1 µM, first compound 0.0316 µM) 75.3% | viability, T/C (second compound 0.1 µM, first compound 0.1 µM) 61.7% | viability, T/C (second compound 0.1 µM, first compound 0.316 µM) 60.7% | viability, T/C (second compound 0.1 µM, first compound 1 µM) 82.7% | viability, T/C (second compound 0.316 µM, first compound 0.00316 µM) 86.5% | viability, T/C (second compound 0.316 µM, first compound 0.01 µM) 69.8% | viability, T/C (second compound 0.316 µM, first compound 0.0316 µM) 106% | viability, T/C (second compound 0.316 µM, first compound 0.1 µM) 104% | viability, T/C (second compound 0.316 µM, first compound 0.316 µM) 71.9% | viability, T/C (second compound 0.316 µM, first compound 1 µM) 76.7% | viability, T/C (second compound 1 µM, first compound 0.00316 µM) 66.6% | viability, T/C (second compound 1 µM, first compound 0.01 µM) 83% | viability, T/C (second compound 1 µM, first compound 0.0316 µM) 66.4% | viability, T/C (second compound 1 µM, first compound 0.1 µM) 61.4% | viability, T/C (second compound 1 µM, first compound 0.316 µM) 73.9% | viability, T/C (second compound 1 µM, first compound 1 µM) 68.7%
> 1000 nM: IC50 (second compound 0.00316 µM) | IC50 (second compound 0.01 µM) | IC50 (second compound 0.0316 µM) | IC50 (second compound 0.1 µM) | IC50 (second compound 0.316 µM) | IC50 (second compound 1 µM)
